In brackets after ≈: the same amount, converted by molar mass.
Legend:
HCT116 colorectal cells = assay: Cell viability assay (CellTiter-Glo) in HCT116 cells; type: cell-based; conditions: Homo sapiens, HCT-116, 72h, CellTiter-Glo, read-out: HCT116 Assay (IC50)
Experimental: HCT116 colorectal cells were used in these experiments. HCT116 cells were obtained from ATCC. The CellTiter-Glo® Luminescent Cell Viability Assay Reagent was obtained from Promega.
Into a 96-well plate, 3000 HCT116 cells were seeded with 100 μL of media (McCoy's 5A Medium supplemented with 10% FBS, 100 units penicillin, and 100 μg streptomycin per mL) 24h before the experiment. For compound treatment, the liquid handling system-Pico machine was used to prepare all the compounds. Each master plate contained serial dilution of 2 compounds, including the control compound E7820. 10 mM compound stock was added to each well of the assay plate to give final concentrations of […], 0.003, 0.002 and 0 μM. Each concentration was tested in triplicate. After 72h, cell viability was determined using CellTiter-Glo Luminescent Cell Viability Assay Reagent following the manufacturer's recommended protocol. Briefly, equilibrate the assay plate and its contents at room temperature for approximately 30 minutes. 100 μL of CellTiter-Glo reagent was added to each well of the assay plate and the contents were mixed for 2 minutes at 500 rpm on an orbital shaker to induce cell lysis (Fisherbrand). The plate was incubated at room temperature for 10 minutes to stabilize luminescent signal. Then the plate was immediately placed in a plate reader (PerkinElmer Multimode Plate Reader Envision2105) and the luminescence signal (0.5 second per well integration time) was determined. IC50 values were calculated using Graphpad Prism 9 software.
Cell viability assays were performed to compare the potency of Compound 1 to Compound 143.

[1] = General solubility protocol (PBS, pH 7.4); type: physicochemical; conditions: PBS buffer, aqueous buffer, kinetic from dmso stock, pH 7.4, 25° C.
Experimental: Into a 96-well rack, 15 μL of stock solution (10 mM) of each sample was placed. Into each vial of a cap-less Solubility Sample plate 485 μL of buffer was added. The assay was performed in duplicate. To each vial one stir stick was added and each vial was sealed using a molded PTFE/Silicone plug. The Solubility Sample plate was then transferred to an Eppendorf Thermomixer Comfort plate shaker and shake at 25° C. at 1100 RPM for 2 hours. […] Using a vacuum manifold, all the samples were filtered. An aliquot of 5 μL was taken from the filtrate and 5 μL blank DMSO followed by addition of 490 μL of a mixture of H2O and acetonitrile containing an internal standard (1:1). The dilution factor may be changed according to the solubility value and the LC/MS signal response.

[2] = Liver microsomes stability, human; type: in vitro ADME; conditions: 1 μM, Table 3, read-out: Metabolic Stability Half-life, human
Experimental: (§1) A 100 μM test compound solution and PC solution (verapamil) was prepared by adding 2 μL of 10 mM stock solution in DMSO to 198 μL of 50% acetonitrile/50% water.
(§2) Two separate experiments were performed as follows:
(§3) a) With Cofactors (NADPH): 25 μL of 10 mM NADPH was added to the incubations. The final concentrations of microsomes and NADPH were 0.5 mg/mL and 1 mM, respectively.
(§4) b) Without Cofactors (NADPH): 25 μL of 100 mM Phosphate buffer was added to the incubations. The final concentration of microsomes was 0.5 mg/mL. The mixture was pre-warmed at 37° C. for 10 minutes.
(§5) The reaction was started with the addition of 2.5 μL of 100 µM control compound or test compound solutions. Verapamil was used as positive control in this study. The final concentration of test compound or control compound was 1 μM. The incubation solution was incubated in a water bath at 37° C.
(§6) Aliquots of 30 μL were taken from the reaction solution at 0.5, 15, 30, 45 and 60 minutes. The reaction was stopped by the addition of 5 volumes of cold acetonitrile with IS (100 nM alprazolam, 200 nM caffeine and 100 nM tolbutamide).
(§7) Samples were then centrifuged at 3,220 g for 40 minutes. An aliquot of 100 μL of the supernatant was mixed with 100 μL of ultra-pure H2O and then used for LC-MS/MS analysis.
(§8) Single dose PK parameters were also determined for Compound 143, a deuterated derivative of Compound 1, according to the methods described herein. […] Metabolic stability was assessed by measuring the half-life of the test compounds in human and mouse liver microsomes.

[3] = Liver microsomes stability, mouse; type: in vitro ADME; conditions: 1 μM, Table 3, read-out: Metabolic Stability Half-life, mouse
Experimental: as §1, §2, §3, §4, §5, §6, §7, §8

MDR1 = target: T1, MDR1 (Homo sapiens, UniProt P08183); assay: MDCK-MDR1 permeability / efflux assay; type: in vitro ADME, canine; conditions: dog, MDCK-MDR1, pH 7.4, MDCK-MDR1, 1 μM, 2 hours; Table 3; read-out: MDCK-MDR1 Efflux ratio
T1 construct: expressed in transfected cells; host or cells: MDCK-MDR1 cells (MDCK host)
Experimental: To prepare transport buffer (HBSS with 10 mM HEPES, pH 7.4), 2.383 g of HEPES and 0.35 g sodium hydrogen carbonate was accurately weighed and added into 900 mL of pure water, then sonicated to dissolve the content. Into the solution was transferred 100 mL of 10×HBSS, and the solution was placed on a stirrer. The pH of the solution was slowly adjusted with sodium hydroxide to 7.4, followed with filtering.
MDCK-MDR1 plate(s) were removed from the incubator. The monolayer was washed the monolayer twice with pre-warmed HBSS (10 mM HEPES, pH 7.4). Then the plate(s) were incubated at 37° C. for 30 minutes.
Propranolol was used as the high permeability marker. Digoxin was used as the substrate of […] (MDR1). Stock solutions of test compound(s) and digoxin in DMSO at 0.2 mM were prepared and diluted with HBSS (10 mM HEPES, pH 7.4) to get 1 μM working solutions. Stock solutions of propranolol in DMSO at 1 mM was prepared and diluted with HBSS (10 mM HEPES, pH 7.4) to get 5 μM working solutions.
To determine the rate of drug transport in the apical to basolateral direction, 125 μL of the working solution was added to the Transwell insert (apical compartment), and a 50 μL sample was immediately transferred from the apical compartment to 200 μL quenching solvents (acetonitrile with 100 nM alprazolam, 200 nM caffeine, 200 nM labetalol and 100 nM tolbutamide) in a new 96-well plate as the initial donor sample (A-B). The plate was shaken at 1000 rpm for 10 minutes. The wells in the receiver plate (basolateral compartment) were filled with 235 μL of transport buffer. All incubations were performed in duplicate.
To determine the rate of drug transport in the basolateral to apical direction, 285 μL of the 1 μM working solution was added to the receiver plate wells (basolateral compartment), and a 50 μL sample was immediately transferred from the basolateral compartment to 200 μL quenching solvents (acetonitrile with 100 nM alprazolam, 200 nM caffeine, 200 nM labetalol and 100 nM tolbutamide) in a new 96-well plate as the initial donor sample (B-A). Shake the plate at 1000 rpm 10 minutes. The Transwell insert (apical compartment) was filled with 75 μL of transport buffer. The apical to basolateral direction and the basolateral to apical direction were done at the same time.
The Transwell insert plate was inserted into the basolateral plate, transferred into the incubator and incubated at 37° C. for 2 hours.
At the end of the incubation, 50 μL samples from donor sides (apical compartment for Ap→Bl flux, and basolateral compartment for Bl→Ap flux) and receiver sides (basolateral compartment for Ap→Bl flux, and apical compartment for Bl→Ap flux) were transferred to wells of a new 96-well plate, followed by the addition of 4 volume of quenching solvents (acetonitrile with 100 nM alprazolam, 200 nM caffeine, 200 nM labetalol and 100 nM tolbutamide). Samples were Vortexed for 10 minutes and then centrifuged at 3,220 g for 40 minutes. An aliquot of 100 μL of the supernatant was mixed with an appropriate volume of ultra-pure water before LC-MS/MS analysis.
To determine the Lucifer yellow leakage after 2-hour transport period, Lucifer yellow working solutions were prepared by diluting the stock solution with HBSS (10 mM HEPES, pH 7.4) to reach the final concentration of 100 μM. To the apical compartment, 100 μL of the Lucifer yellow solution were added. The plate(s) were incubated at 37° C. for 30 minutes and 80 μL was directly removed from the apical and basolateral wells and transferred to new 96 wells plates. Lucifer yellow fluorescence (to monitor monolayer integrity) was measured in a fluorescence plate reader at 485 nm excitation and 530 nm emission.

T1 sequence (P08183 whole entry): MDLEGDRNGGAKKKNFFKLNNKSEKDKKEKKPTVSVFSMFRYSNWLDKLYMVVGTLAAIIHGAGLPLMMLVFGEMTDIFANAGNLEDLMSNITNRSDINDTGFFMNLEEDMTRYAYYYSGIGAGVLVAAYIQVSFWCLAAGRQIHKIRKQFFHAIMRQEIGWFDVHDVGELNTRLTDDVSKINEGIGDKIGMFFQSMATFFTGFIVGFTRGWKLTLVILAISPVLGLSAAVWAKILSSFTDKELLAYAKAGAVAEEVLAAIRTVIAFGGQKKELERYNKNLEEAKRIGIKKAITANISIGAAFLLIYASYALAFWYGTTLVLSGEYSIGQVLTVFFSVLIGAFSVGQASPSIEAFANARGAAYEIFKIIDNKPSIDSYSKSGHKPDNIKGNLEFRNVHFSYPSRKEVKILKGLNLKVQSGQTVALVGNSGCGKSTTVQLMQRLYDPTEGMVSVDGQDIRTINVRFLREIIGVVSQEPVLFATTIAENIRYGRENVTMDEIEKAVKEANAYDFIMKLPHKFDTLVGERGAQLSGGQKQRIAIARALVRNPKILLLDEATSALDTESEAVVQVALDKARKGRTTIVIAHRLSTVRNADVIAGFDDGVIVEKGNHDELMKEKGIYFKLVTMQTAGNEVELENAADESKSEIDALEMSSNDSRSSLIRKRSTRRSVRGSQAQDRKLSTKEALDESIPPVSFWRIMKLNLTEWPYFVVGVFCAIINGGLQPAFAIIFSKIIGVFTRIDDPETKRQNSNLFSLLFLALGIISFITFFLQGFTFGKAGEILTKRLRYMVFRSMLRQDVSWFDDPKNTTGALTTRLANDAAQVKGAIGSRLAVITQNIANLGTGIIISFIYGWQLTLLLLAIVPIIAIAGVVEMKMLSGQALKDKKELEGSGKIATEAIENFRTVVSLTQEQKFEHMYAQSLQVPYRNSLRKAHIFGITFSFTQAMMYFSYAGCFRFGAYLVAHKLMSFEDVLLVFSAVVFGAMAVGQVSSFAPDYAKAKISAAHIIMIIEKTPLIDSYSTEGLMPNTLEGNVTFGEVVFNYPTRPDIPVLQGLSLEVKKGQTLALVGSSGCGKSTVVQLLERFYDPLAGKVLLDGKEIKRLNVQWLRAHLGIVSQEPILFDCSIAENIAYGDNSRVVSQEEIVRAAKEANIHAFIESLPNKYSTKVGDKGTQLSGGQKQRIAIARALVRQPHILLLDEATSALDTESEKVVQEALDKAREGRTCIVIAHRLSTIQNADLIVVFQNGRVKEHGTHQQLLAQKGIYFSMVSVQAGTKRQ

Row | IC50 (HCT116 colorectal cells) [µM] | solubility at 2 h [1] [µM] | half-life at 1 µM [2] [h] | half-life at 1 µM [3] [h] | efflux ratio at 2 h, 1 µM (MDR1) | SMILES
1 | < 0.5 | 292 (≈ 92.4 µg/mL) | > 3.85 | 2.68 | 6.74 | Cc1ncc(S(=O)(=O)Nc2ccc(C)c3c(C#N)c[nH]c23)o1 [Compound 2, N-(3-cyano-4-methyl-1H-indol-7-yl)-2-methyl-oxazole-5-sulfonamide]
2 | < 0.5 | 294 (≈ 97.6 µg/mL) | 0.557 | 1.02 | 4.84 | Cc1cc(S(=O)(=O)Nc2ccc(C)c3c(C#N)c[nH]c23)sn1 [Compound 57]
3 |  | 1.24 (≈ 0.436 µg/mL) | 1.16 | 0.566 | 50.1 | Cc1ccc(NS(=O)(=O)c2ccn3ccnc3c2)c2[nH]cc(C#N)c12 [Compound 39]
4 | < 0.5 | 1.91 (≈ 0.653 µg/mL) | 0.396 |  | 1.11 | Cc1ncc(S(=O)(=O)Nc2ccc(C)c3c(Cl)c[nH]c23)s1 [Compound 20, N-(3-chloro-4-methyl-1H-indol-7-yl)-2-methyl-thiazole-5-sulfonamide]
5 | > 1 |  |  |  |  | Cc1ccc(NS(=O)(=O)c2cnc(C3CCCNC3)s2)c2[nH]cc(C#N)c12 (stereo not shown) [Compound 27, N-(3-cyano-4-methyl-1H-indol-7-yl)-2-(piperidin-3-yl)thiazole-5-sulfonamide]
6 | 0.5 to 1 |  |  |  |  | Cc1ccc(NS(=O)(=O)c2cnc(C(C)N(C)C)s2)c2[nH]cc(C#N)c12 (stereo not shown) [Compound 23, N-(3-cyano-4-methyl-1H-indol-7-yl)-2-(1-(dimethylamino)ethyl)thiazole-5-sulfonamide]
7 | > 1 |  |  |  |  | Cc1ccc(NS(=O)(=O)c2cnc(C3CCN(C(=O)OC(C)(C)C)CC3)s2)c2[nH]cc(C#N)c12 [Compound 25, tert-butyl 4-[5-[(3-cyano-4-methyl-1H-indol-7-yl)sulfamoyl]thiazol-2-yl]piperidine-1-carboxylate]
8 | > 1 |  |  |  |  | Cc1ccc(NS(=O)(=O)c2cnc(OCC(=O)N3CCCC3C#N)s2)c2[nH]cc(C#N)c12 (stereo not shown) [Compound 65]
